Experiments:
[1] = species: Mus musculus; experiment: Feed efficiency was calculated by dividing body weight gain by feed consumption in mouse; assay type: functional
[2] = species: Mus musculus; experiment: Compound was evaluated for its potency in CDF1 mice and the serum triglyceride levels were determined; assay type: ADME, organism-based
[3] = species: Mus musculus; experiment: Evaluated for potency in CDF1 mice and the inhibition of body weight gain was determined; assay type: functional
[4] = species: Mus musculus; experiment: Evaluated for potency in CDF1 mice and the ability of it to decrease feed consumption was determined; assay type: functional
[5] = species: Mus musculus; experiment: Compound was evaluated for its potency in CDF1 mice and the serum metabolite levels were determined; assay type: ADME, organism-based
[6] = species: Mus musculus; experiment: Compound was evaluated for its potency in CDF1 mice and the serum cholesterol levels were determined; assay type: ADME, organism-based
[7] = species: Mus musculus; experiment: Compound was evaluated for its potency in CDF1 mice and the abdominal fat weight was determined.; assay type: functional, Abdomen
[8] = species: Mus musculus; experiment: Compound was evaluated for its potency in CDF1 mice and the abdominal fat weight was determined; assay type: functional, Abdomen

| Structure (SMILES) | Feed efficiency [1] | Serum triglyceride [2] [mg/dL] | Body weight gain [3] [g/day] | Feed consumption [4] [g/day] | Serum metabolite [5] [mg/dL] | Serum cholesterol [6] [mg/dL] | Abdominal fat [7] [g] | Abdominal fat [8] [g] |
| --- | --- | --- | --- | --- | --- | --- | --- | --- |
| CC(C)CCC[C@@H](C)[C@H]1CC[C@H]2[C@@H]3C=CC4=CC(=O)C=C[C@]4(C)[C@H]3CC[C@]12C | 0.05 | 390.4 | 0.27 | 5.41 | 0 | 206.3 | – | – |
| CC(C)CCC[C@@H](C)[C@H]1CC[C@H]2[C@@H]3C[C@@H](O)C4=CC(=O)CC[C@]4(C)[C@H]3CC[C@]12C | 0.05 | 120 | 0.28 | 5.7 | 0 | 136.7 | 0.8 | – |
| CCCCCCCCC(=O)OC1CC[C@@]2(C)C(=CC[C@H]3[C@@H]4CC[C@H]([C@H](C)CCCC(C)C)[C@@]4(C)CC[C@@H]32)C1 (some centres undefined) | 0.1 | – | 0.52 | 5.28 | – | – | – | – |
| CC(C)CCC[C@@H](C)[C@H]1CC[C@H]2[C@@H]3CC(=O)C4=CC(=O)CC[C@]4(C)[C@H]3CC[C@]12C | -0.06 | 133.6 | -0.36 | 6 | 0 | 110 | 0.3 | – |
| CC(C)CCC[C@@H](C)[C@H]1CC[C@H]2[C@@H]3CC=C4C=C(N5CCCC5)CC[C@]4(C)[C@H]3CC[C@]12C | -0.03 | 277.7 | -0.18 | 6.1 | 22 | 158.1 | 0.41 | – |
| CC[C@H](CC[C@@H](C)[C@H]1CC[C@H]2[C@@H]3CCC4CC(O)CC[C@]4(C)[C@H]3CC[C@]12C)C(C)C (some centres undefined) | 0.09 | – | 0.49 | 5.43 | – | – | – | – |
| CC(C)CCC[C@@H](C)[C@H]1CC[C@H]2[C@@H]3C[C@H](O)[C@]4(O)CC(=O)CC[C@]4(C)[C@H]3CC[C@]12C | 0.11 | – | 0.58 | 5.39 | – | – | – | – |
| CC[C@H](/C=C/[C@@H](C)[C@H]1CC[C@H]2[C@@H]3CC=C4CC(=O)CC[C@]4(C)[C@H]3CC[C@]12C)C(C)C | 0.08 | – | 0.52 | 6.37 | – | – | – | – |
| CC(C)CCC[C@@H](C)[C@H]1CC[C@H]2[C@@H]3CC[C@H]4CC(O)CC[C@]4(C)[C@H]3CC[C@]12C (some centres undefined) | 0.07 | 212.7 | 0.38 | 5.45 | 23 | 148.1 | 0.9 | – |
| CC(C)CCC[C@@H](C)[C@H]1CC[C@H]2[C@@H]3CC=C4CC(OC(=O)c5ccccc5)CC[C@]4(C)[C@H]3CC[C@]12C (some centres undefined) | 0.08 | – | 0.46 | 5.57 | – | – | – | – |
| CC(C)CCC[C@@H](C)[C@H]1CC[C@H]2[C@@H]3CC[C@@]45O[C@@H]4C(=O)CC[C@]5(C)[C@H]3CC[C@]12C | 0.08 | 218 | 0.46 | 6.14 | 0 | 141.6 | 1.12 | – |
| CC(=O)OC1=CC2=CC[C@H]3[C@@H]4CC[C@H]([C@H](C)CCCC(C)C)[C@@]4(C)CC[C@@H]3[C@@]2(C)CC1 | 0.06 | 119.9 | 0.33 | 5.64 | 22 | 187.5 | 1.03 | – |
| CC(C)CCC[C@@H](C)[C@H]1CC[C@H]2[C@@H]3CCC4=C(CSc5ccccc5)C(=O)CC[C@]4(C)[C@H]3CC[C@]12C | 0.09 | – | 0.56 | 6.23 | – | – | – | – |
| CC[C@H](CC[C@@H](C)[C@H]1CC[C@H]2[C@@H]3CCC4=CC(=O)CC[C@]4(C)[C@H]3CC[C@]12C)C(C)C | 0.08 | 188.3 | 0.4 | 4.94 | 0 | 164.6 | 1 | – |
| CC[C@H](/C=C/[C@@H](C)[C@H]1CC[C@H]2[C@@H]3CC=C4CC(O)CC[C@]4(C)[C@H]3CC[C@]12C)C(C)C (some centres undefined) | 0.09 | – | 0.57 | 6.3 | – | – | – | – |
| CC(C)CCC[C@@H](C)[C@H]1CC[C@H]2[C@@H]3C=CC4=CC(=O)CC[C@]4(C)[C@H]3CC[C@]12C | 0.07 | 172.6 | 0.32 | 4.71 | 22 | 112.7 | 0.9 | – |
| CC(=O)OC1CC[C@@]2(C)C(=CC[C@H]3[C@@H]4CC[C@H]([C@H](C)CCCC(C)C)[C@@]4(C)CC[C@@H]32)C1 (some centres undefined) | 0.1 | – | 0.52 | 5.28 | – | – | – | – |
| CC(C)CCC[C@@H](C)[C@H]1CC[C@H]2[C@@H]3CC=C4CCCC[C@]4(C)[C@H]3CC[C@]12C | 0.08 | 253.6 | 0.56 | 6.95 | 0 | 165.8 | – | – |
| CC(C)CCC[C@@H](C)[C@H]1CC[C@H]2[C@@H]3CCC4C[C@@H](O)CC[C@]4(C)[C@H]3CC[C@]12C (some centres undefined) | 0.09 | – | 0.52 | 5.83 | – | – | – | – |
| CC(C)CCC[C@@H](C)[C@H]1CC[C@H]2[C@@H]3CCC4CC(O)CC[C@]4(C)[C@H]3CC[C@]12C (some centres undefined) | 0.09 | – | 0.58 | 6.48 | – | – | – | – |
| CC(C)CCC[C@@H](C)[C@H]1CC[C@H]2[C@@H]3CC[C@@H]4CC(=O)CC[C@]4(C)[C@H]3CC[C@]12C | 0.09 | 291.2 | 0.5 | 5.39 | 22 | 161.3 | 1.25 | – |
| CC(C)CCC[C@@H](C)[C@H]1CC[C@H]2[C@@H]3C[C@H](Br)[C@]4(Br)CC(=O)CC[C@]4(C)[C@H]3CC[C@]12C | 0.08 | – | 0.43 | 5.72 | – | – | – | – |
| CC(C)CCC[C@@H](C)[C@H]1CC[C@H]2[C@@H]3CCC4=C(Br)C(=O)CC[C@]4(C)[C@H]3CC[C@]12C | 0.08 | – | 0.52 | 6.58 | – | – | – | – |
| CC(C)CCC[C@@H](C)[C@H]1CC[C@H]2[C@@H]3CC[C@@H]4CC(O)CC[C@]4(C)[C@H]3CC[C@]12C (some centres undefined) | 0.09 | – | 0.55 | 6.1 | – | – | – | – |
| CC(C)CCC[C@@H](C)[C@H]1CC[C@H]2[C@@H]3CCC4=CC(=O)C=C[C@]4(C)[C@H]3CC[C@]12C | 0.03 | 266.9 | 0.15 | 4.94 | 0 | 165.4 | 0.61 | – |
| CC(C)CCC[C@@H](C)[C@H]1CC[C@H]2[C@@H]3C[C@H](Br)C4=CC(=O)CC[C@]4(C)[C@H]3CC[C@]12C | 0.06 | 257.3 | 0.26 | 4.2 | 22 | 176.8 | 0.81 | – |
| CC(C)CCC[C@@H](C)[C@H]1CC[C@H]2[C@@H]3CCC4=CC(=O)CC[C@]4(C)[C@H]3CC[C@]12C [4-CHOLESTEN 3-ONE] | 0.06 | 218.3 | 0.35 | 5.43 | 22 | 115.8 | – | 0.68 |
| CC(C)CCC[C@@H](C)[C@H]1CC[C@H]2[C@@H]3CC=C4CC(=O)CC[C@]4(C)[C@H]3CC[C@]12C [CHOLEST-5-EN-3-ONE] | 0.03 | 87.5 | -0.1 | 3.62 | 0 | 122.1 | 0.48 | – |
| CC(C)CCC[C@@H](C)[C@H]1CC[C@H]2[C@@H]3CC[C@H]4CC(=O)CC[C@]4(C)[C@H]3CC[C@]12C [CHOLESTAN-3-ONE] | 0.06 | 201.7 | 0.28 | 4.6 | 23 | 134.1 | 0.92 | – |

From ChEMBL document CHEMBL1130921, “The cholesterol metabolite cholest-4-en-3-one and its 3-oxo derivatives suppress body weight gain, body fat accumulation and serum lipid concentration in mice” (Bioorg Med Chem Lett, 1998)
